Data on 30 molecules can be found in ChEMBL document CHEMBL1141935, “Aminopiperidine indazoles as orally efficacious melanin concentrating hormone receptor-1 antagonists” (Bioorg Med Chem Lett, 2005).

Data set [1] deals with T1, Melanin-concentrating hormone receptor 1 (Homo sapiens, UniProt Q99705). Description: Binding affinity to human MCHr1 from neuronal IMR32 cells. It counts as cell-based, IMR-32.
Data set [2] addresses T1, Melanin-concentrating hormone receptor 1. Description: Functional antagonism of MCH-mediated calcium release by FLIPR using human MCHr1 from neuronal IMR32 cells. It counts as cell-based, IMR-32.
A short description of data set [3]: Cmax in DIO mice plasma at 10 mg/kg, po. Type of data set: ADME, organism-based. Set-up: dose 10 mg/kg, route oral. The settings on record: mouse.
The nature of data set [4]: Half life in DIO mice plasma at 10 mg/kg, po. Type of data set: ADME, organism-based. The settings on record: mouse. On the set-up: dose 10 mg/kg, route oral.
The nature of data set [5]: Half life in DIO mice brain at 10 mg/kg, po. On the set-up: dose 10 mg/kg, route oral. The note with it: mouse. Type of data set: ADME, organism-based.
Data set [6] in a line: AUC in DIO mice brain at 10 mg/kg, po. It counts as ADME, organism-based. On the set-up: dose 10 mg/kg, route oral. The note with it: mouse.
Data set [7] is described as follows: Cmax in DIO mice brain at 10 mg/kg, po. Set-up: dose 10 mg/kg, route oral. The note with it: mouse. It counts as ADME, organism-based.
A short description of data set [8]: AUC in DIO mice plasma at 10 mg/kg, po. The note with it: mouse. It counts as ADME, organism-based. On the set-up: dose 10 mg/kg, route oral.

In general, pIC50 refers to the IC50 on a negative log10 scale, so that one unit is a factor of ten. What is called Cmax is the maximum level reached in the sampled fluid or tissue. What is called half-life is how long it takes for the measured level to halve. A word on the AUC: it is the area under the concentration-time curve, a measure of exposure.

pIC50: −log10 of the molar value.

T1 sequence (Q99705 whole entry): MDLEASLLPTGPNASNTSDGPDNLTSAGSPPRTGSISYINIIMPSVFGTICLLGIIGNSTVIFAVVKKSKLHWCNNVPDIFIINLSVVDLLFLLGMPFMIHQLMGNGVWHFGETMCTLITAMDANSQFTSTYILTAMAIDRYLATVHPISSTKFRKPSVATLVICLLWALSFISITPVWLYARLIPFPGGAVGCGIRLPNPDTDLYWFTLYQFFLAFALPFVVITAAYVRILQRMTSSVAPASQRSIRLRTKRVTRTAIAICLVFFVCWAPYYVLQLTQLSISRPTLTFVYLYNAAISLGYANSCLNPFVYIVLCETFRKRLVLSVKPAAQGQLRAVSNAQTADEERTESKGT

On to `Cc1ccc2[nH]nc(NC3CCN(Cc4ccc5c(c4)OCO5)CC3)c2c1`, for which the figures for the pIC50 in data set [1] and in data set [2] were 6.96 and 5.97, respectively.
As for `O=[N+]([O-])c1ccc2[nH]nc(NC3CCN(Cc4ccc5c(c4)OCO5)CC3)c2c1`, the Cmax was 1520 ng/mL in data set [3] and 3080 ng/mL in data set [7]. The figures for the half-life in data set [4] and in data set [5] were 3.3 h and 4 h, respectively. Besides, the pIC50 in data set [1] is 8.22; in data set [2], 7.15. In addition, the AUC is 22800 ng·h/mL in data set [6] and 14400 ng·h/mL in data set [8].
On to `c1ccc2c(NC3CCN(Cc4ccc5c(c4)OCO5)CC3)[nH]nc2c1`, for which the pIC50 in data set [1] is 6.36; in data set [2] it was below 5.00.
On the same counts, the results for `COc1ccc(CN2CCC(Nc3[nH]nc4ccc(Cl)cc34)CC2)c(F)c1` are 6.62 and 5.28.
On the same counts, the results for `N#Cc1ccc2[nH]nc(NC3CCN(Cc4ccc5c(c4)OCO5)CC3)c2c1` are 6.66 and 5.47.
On the same counts, the results for `Clc1ccc2c(c1)c(NC1CCN(Cc3ccc4c(c3)OCO4)CC1)nn2Cc1ccccn1` are 8.05 and 6.26.
Regarding `COc1cccc(CN2CCC(Nc3[nH]nc4ccc(Cl)cc34)CC2)c1`, the figures for the pIC50 in data set [1] and in data set [2] were 6.82 and 5.35, respectively.
On the same counts, the results for `Cc1ccc(CN2CCC(Nc3[nH]nc4ccc(Cl)cc34)CC2)cc1C` are 7.00 and 5.86.
On the same counts, the results for `Clc1ccc2[nH]nc(NC3CCN(Cc4ccc5nsnc5c4)CC3)c2c1` are 7.30 and 5.31.
On the same counts, the results for `Clc1ccc2[nH]nc(NC3CCN(Cc4ccccc4)CC3)c2c1` are 6.07 and below 5.00.
For `Clc1ccc2c(c1)c(NC1CCN(Cc3ccc4c(c3)OCO4)CC1)nn2Cc1cccnc1`, the Cmax in data set [3] came out at 1690 ng/mL; in data set [7], 758 ng/mL. For the same molecule, the results for the half-life in data set [4] and in data set [5] were 4.7 h and 6 h, respectively. Besides, the pIC50 in data set [1] was 7.70; in data set [2], 6.54. Besides, the values for the AUC in data set [6] and in data set [8] were 5340 ng·h/mL and 11900 ng·h/mL, respectively.
For `Clc1ccc2[nH]nc(NC3CCN(Cc4ccc5c(c4)OCCO5)CC3)c2c1`, the pIC50 in data set [1] is 7.15; in data set [2], 5.72.
On the same counts, the results for `COc1cccc2[nH]nc(NC3CCN(Cc4ccc5c(c4)OCO5)CC3)c12` are 6.48 and below 5.00.
On the same counts, the results for `COc1ccc2[nH]nc(NC3CCN(Cc4ccc5c[nH]nc5c4)CC3)c2c1` are 7.30 and 6.42.
`O=C(c1cscn1)n1nc(NC2CCN(Cc3ccc4c(c3)OCO4)CC2)c2cc(Cl)ccc21` came in with a Cmax in data set [3] of 271 ng/mL. Further, the half-life in data set [4] is 1 h. Further, the pIC50 was 7.70 in data set [1] and 5.60 in data set [2]. The AUC in data set [8] is 400 ng·h/mL.
Turning to `O=C(C1CC1)n1nc(NC2CCN(Cc3ccc4c(c3)OCO4)CC2)c2cc(Cl)ccc21`, the pIC50 in data set [1] was 7.40; in data set [2] it was below 5.00.
On the same counts, the results for `Clc1ccc2c(c1)c(NC1CCN(Cc3ccc4c(c3)OCO4)CC1)nn2Cc1ccncc1` are 8.15 and 6.25.
On the same counts, the results for `COc1ccc2c(c1)c(NC1CCN(Cc3ccc4c(c3)OCO4)CC1)nn2C` are 7.52 and 6.72.
For `O=C(CN1CCOCC1)n1nc(NC2CCN(Cc3ccc4c(c3)OCO4)CC2)c2cc(Cl)ccc21`, the pIC50 in data set [1] was 7.70; in data set [2], 5.94.
Consider `O=C(c1cccnc1)n1nc(NC2CCN(Cc3ccc4c(c3)OCO4)CC2)c2cc(Cl)ccc21`, for which, in data set [3], the Cmax was found to be 63 ng/mL. This molecule also had a half-life in data set [4] of 2.3 h. For the same molecule, the results for the negative logarithm of the IC50 (pIC50) in data set [1] and in data set [2] were 7.70 and 6.03, respectively. This molecule also had an AUC in data set [8] of 164 ng·h/mL.
For the molecule `Clc1ccc(CN2CCC(Nc3[nH]nc4ccc(Cl)cc34)CC2)cc1`, the pIC50 was 6.70 in data set [1] and 5.21 in data set [2].
On the same counts, the results for `Clc1ccc2c(c1)c(NC1CCN(Cc3ccc4c(c3)OCO4)CC1)nn2-c1ccccc1` are 7.30 and below 5.00.
In the case of `Clc1ccc2c(c1)c(NC1CCN(Cc3ccc4c(c3)OCO4)CC1)nn2Cc1ccccc1`, the results for the pIC50 in data set [1] and in data set [2] were 7.40 and 5.28, respectively.
Take `COc1ccc2[nH]nc(NC3CCN(Cc4ccc5c(c4)OCO5)CC3)c2c1`: the values for the Cmax in data set [3] and in data set [7] were 1410 ng/mL and 6040 ng/mL, respectively. The half-life in data set [4] is 3.9 h; in data set [5] it was 4.9 h. Moreover, the pIC50 in data set [1] was 8.10; in data set [2] it was 7.22. In addition, the AUC was determined as 28500 ng·h/mL in data set [6] and 7630 ng·h/mL in data set [8].
`Clc1ccc2c(c1)c(NC1CCN(Cc3ccc4ccccc4c3)CC1)nn2Cc1ccccn1`: the values for the pIC50 in data set [1] and in data set [2] were 7.70 and 6.19, respectively.
On the same counts, the results for `Clc1ccc2[nH]nc(NC3CCN(Cc4ccc5ccccc5c4)CC3)c2c1` are 7.40 and 5.74.
Consider `O=[N+]([O-])c1ccc2[nH]nc(NC3CCN(Cc4ccc5c(c4)OCCO5)CC3)c2c1`, for which the figures for the pIC50 in data set [1] and in data set [2] were 7.52 and 6.28, respectively.
On the same counts, the results for `FC(F)(F)c1ccc2[nH]nc(NC3CCN(Cc4ccc5c(c4)OCO5)CC3)c2c1` are below 5.70 and below 5.00.
Turning to `Clc1ccc2[nH]nc(NC3CCN(Cc4ccc5c(c4)OCO5)CC3)c2c1`, the Cmax in data set [3] amounted to 1880 ng/mL; in data set [7], 12100 ng/mL. Also, the half-life is 3.1 h in data set [4] and 2.9 h in data set [5]. Further, the figures for the pIC50 in data set [1] and in data set [2] were 7.70 and 6.59, respectively. The values for the AUC in data set [6] and in data set [8] were 59100 ng·h/mL and 8760 ng·h/mL, respectively.
With `O=[N+]([O-])c1ccc2c(c1)c(NC1CCN(Cc3ccc4c(c3)OCO4)CC1)nn2Cc1ccccc1`, the pIC50 in data set [1] is 8.30; in data set [2], 6.46.
